Reference: patent publication US20210238169A1, “PROCESS FOR PREPARING A COMPOUND OF FORMULA (XIII)” (PULMOCIDE LIMITED, priority 2014, published 2021)

System: Aspergillus fumigatus (TR34-L98H strain)
Assay: Aspergillus fumigatus invasion in human alveoli bilayers (transwells), GM in lower chamber
Assay type: cell-based
Conditions: Compound (I) 1 μg/mL upper chamber, Posaconazole 0.1 μg/mL lower chamber
Method: In vitro models of human alveoli, consisting of a bilayer of human alveolar epithelial cells and endothelial cells, were prepared as previously described (Hope et al., 2007). This system allows administration of a test compound to the upper (“air” space) and/or lower (“systemic” space) compartments. This flexibility has been exploited to explore the effects of combination treatments by dosing Compound (I) to the upper chamber and posaconazole or other anti-fungal agents to the lower chamber. Primary human pulmonary artery endothelial cells (HPAEC) were harvested and diluted to 10^6 cells/mL in EGM-2 media (Lonza, Basel, Switzerland). Transwells were inverted and the cell suspension (100 μL/well) was applied to the base of each transwell. The inverted transwells were incubated at RT within a flow hood for 2 hr after which they were turned upright. EGM-2 media was added to the lower (700 μL/well) and upper (100 μL/well) compartments and the transwells were incubated for 48 hr (37° C., 5% CO2). The EGM-2 media in the lower compartment was then replaced with fresh EGM-2 media. A549 cells were harvested and diluted to 5×10^5 cells/mL in 10% EBM, then added to the upper compartment (100 μL/well) of all transwells and the plates incubated for 72 hr (37° C., 5% CO2). Conidia of Aspergillus fumigatus (the itraconazole sensitive strain NCPF2010 and the itraconazole resistant strain TR34-L98H) were cultured separately in Sabouraud dextrose agar for 3 days. A stock conidia suspension of either strain was prepared from a Sabouraud dextrose agar culture by washing with PBS-tween (10 mL; PBS containing 0.05% Tween-20, 100 U/mL Penicillin and 100 U/mL Streptomycin). The conidia count was assessed using a Neubauer haemocytometer and adjusted to 10^6 conidia/mL with PBS. A working stock of conidia was prepared in EBM (conc of 10^5 conidia/mL) immediately prior to use.
Test and reference compounds (or neat DMSO as the vehicle) were added to the appropriate wells of 24-well plates (3 μL/well containing 600 μL of 2% FBS EBM) for lower compartment treatment and to 96-well plates (1 μL/well containing 200 μL of 2% FBS EBM) for the treatment of the upper compartment, to provide a final DMSO concentration of 0.5%. The media in the upper compartment was aspirated and that containing the appropriate test and reference compounds, or vehicle, were added (100 μL/well). Transwells were then transferred into the 24-well plate containing the test and reference compounds or DMSO vehicle. After incubation for 1 hr (35° C., 5% CO2) the conidia suspension (10 μL/well) was added to the upper compartment of each transwell. Plates were then incubated for 24 hr (35° C., 5% CO2). Supernatants from each compartment (5 μL/compartment) were collected and stored (−20° C.). Media was replaced daily after collection of the supernatants and all wells were treated with test and reference compounds or with DMSO, as described above, for 3 days. Samples continued to be collected until fungal growth was visible by eye in all transwells. The levels of GM in the supernatant in lower compartment were then measured by ELISA (BioRad, CA, USA) as an index of Aspergillus fumigatus invasion.

Row | Compound | DFB50 (days taken to reach a fungal burden of 50% of control) [days] | GM Levels in the Lower Chamber, OD value (Treatment Day 0) [OD] | GM Levels in the Lower Chamber, OD value (Treatment Day 1) [OD] | GM Levels in the Lower Chamber, OD value (Treatment Day 2) [OD] | GM Levels in the Lower Chamber, OD value (Treatment Day 3) [OD] | GM Levels in the Lower Chamber, OD value (Treatment Day 4) [OD] | GM Levels in the Lower Chamber, % inhibition vs. control (Treatment Day 1) [%] | GM Levels in the Lower Chamber, % inhibition vs. control (Treatment Day 2) [%] | GM Levels in the Lower Chamber, % inhibition vs. control (Treatment Day 3) [%] | GM Levels in the Lower Chamber, % inhibition vs. control (Treatment Day 4) [%]
1 | Cc1cc(N2CCN(c3ccc(C(=O)Nc4ccc(F)cc4)cc3)CC2)ccc1OC[C@@H]1CO[C@@](Cn2cncn2)(c2ccc(F)cc2F)C1 [Compound (I), 4-(4-(4-(((3R,5R)-5-((1H-1,2,4-triazol-1-yl)methyl)-5-(2,4-difluorophenyl)tetrahydrofuran-3-yl)methoxy)-3-methylphenyl)piperazin-1-yl)-N-(4-fluorophenyl)benzamide] | 1.10 | 0 | 0.35 | 0.99 | 0.99 | 1.01 |  |  |  | 
2 | CC[C@@H]([C@H](C)O)n1ncn(-c2ccc(N3CCN(c4ccc(OC[C@@H]5CO[C@@](Cn6cncn6)(c6ccc(F)cc6F)C5)cc4)CC3)cc2)c1=O [Posaconazole] | 1.64 | 0 | 0.039 | 1.02 | 0.97 | 1.02 | 88 | −2.7 | 1.7 | −1.4
